Article PMC9998502, “Functional selectivity of EM-2 analogs at the mu-opioid receptor” (Frontiers in Pharmacology, 2023)
Like-named read-outs stand apart in the source and are kept apart here. Marks after values point to notes of the source that are not given here. Non-standard residues stand in square brackets, D forms with d. Residues, ends and D or L forms follow the SMILES beside them. Dmt = Cc1cc(O)cc(C)c1C[C@H](N)C(=O)O; d(β3hA) = C[C@@H](N)CC(=O)O

Assays:
[1] = n-Octanol/water partition coefficient (log P); assay type: physicochemical; settings: n-octanol / 0.05 M HEPES buffer in 0.1 M NaCl, pH 7.4
Protocol: Determination of log P was performed according to the method described by ([Liu et al., 2006]). Peptides were dissolved in 0.05 M HEPES buffer in 0.1 M NaCl, pH 7.4, then an equal volume of n-octanol was added and mixtures were vortexed for 2 min. Samples were centrifuged at 4,000 rpm for 1 min. After separation, aqueous and octanol phases were used to quantify peptide content by RP-HPLC.
Octanol phase was lyophilized and reconstituted in 80% acetonitrile in water containing 0.1% TFA before RP-HPLC. All n-octanol/buffer distribution studies were performed in triplicate.

[2] = test system: mu receptor; assay: Bias factor, mu-G protein vs mu-β-arrestin 2 (BRET), EM-2 as standard ligand; settings: log10 units, towards G protein
[3] = molecular target: mu receptor-β-arrestin 2 interaction (Homo sapiens, UniProt P35372); assay: BRET mu-β-arrestin 2 interaction assay (living SH-SY5Y cells, mu-RLuc/β-arrestin 2-RGFP), agonism
mu receptor-β-arrestin 2 interaction, sequence (P35372 whole entry): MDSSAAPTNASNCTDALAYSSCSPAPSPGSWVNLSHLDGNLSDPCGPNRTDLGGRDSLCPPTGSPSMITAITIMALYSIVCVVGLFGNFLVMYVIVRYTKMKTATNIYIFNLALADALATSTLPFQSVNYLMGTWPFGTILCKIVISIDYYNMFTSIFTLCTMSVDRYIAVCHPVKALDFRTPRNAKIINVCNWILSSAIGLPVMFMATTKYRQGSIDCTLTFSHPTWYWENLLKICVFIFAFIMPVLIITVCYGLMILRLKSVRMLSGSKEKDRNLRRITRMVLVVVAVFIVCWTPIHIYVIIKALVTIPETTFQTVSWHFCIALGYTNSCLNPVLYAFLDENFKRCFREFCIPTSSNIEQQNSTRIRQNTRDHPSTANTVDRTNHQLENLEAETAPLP
Protocol: (§1) SH-SY5Y cells stably co-expressing the fusoproteins mu-RLuc and Gβ1-RGFP or mu-RLuc and β-arrestin 2-RGFP were grown in DMEM/F12 (1:1) medium supplemented with 10% FBS, 2 mM L-Glutamine, 100 μg/mL hygromycin B, 400 μg/mL G418, 100 units/mL penicillin G, 100 μg/mL streptomycin and 1 μg/mL Fungizone at 37°C in a humidified atmosphere with of 5% CO2.
Mu- β-arrestin 2 interaction—Living SH-SY5Y cells expressing mu-RLuc and β-arrestin 2-RGFP were seeded at a cell density of 100,000 cells/well 24 h prior to the test. On the day of the experiment, medium was discarded, and cells were washed with PBS supplemented with 0.5 mM MgCl2, 0.9 mM CaCl2. Cells were subsequently incubated with 2 μM Prolume Purple Coelenterazine (NanoLight Technology, White Mountain, AZ; United States) for 10 min before bioluminescence reading.
(§2) In agonism experiments, ligands were added and incubated for 5 min before microplate reading. […] BRET ratios were computed as follow: RGFPCPS/RLucCPSligand−RGFPCPS/RLucCPSvehicle
(§3) Concentration-response curves to agonists were fitted to the four-parameter logistic non-linear regression model as follows: Effect=Basal+Emax−Basal/1+10^LogEC50−Logligand×HillSlope

[4] = molecular target: mu receptor-G protein interaction (Homo sapiens, UniProt P35372); assay: BRET mu-G protein interaction assay (membranes of SH-SY5Y cells, mu-RLuc/Gβ1-RGFP)
mu receptor-G protein interaction, sequence (P62871 whole entry): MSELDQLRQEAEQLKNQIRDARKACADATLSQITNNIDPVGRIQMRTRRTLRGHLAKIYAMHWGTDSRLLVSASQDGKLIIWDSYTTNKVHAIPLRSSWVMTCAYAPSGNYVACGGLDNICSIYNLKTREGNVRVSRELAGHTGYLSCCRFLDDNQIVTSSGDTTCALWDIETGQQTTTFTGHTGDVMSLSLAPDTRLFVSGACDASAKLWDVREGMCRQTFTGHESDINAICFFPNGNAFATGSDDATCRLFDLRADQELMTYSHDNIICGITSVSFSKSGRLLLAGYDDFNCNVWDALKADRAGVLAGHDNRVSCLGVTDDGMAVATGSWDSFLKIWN
mu receptor-G protein interaction, sequence (P35372 whole entry): as the sequence (P35372 whole entry) above
Protocol: as §1
Total protein in membrane preparations was determined by colorimetric method with the Quantum Protein-BCA kit (EuroClone, Pero (MI), IT) and measured using the multiplate reader Victor Nivo (PerkinElmer, Walthman, MA, United States). White opaque 96 wells microplates (PerkinElmer, Walthman, MA, United States) were used to carry out BRET assays. Cell membranes were thawed and resuspended in PBS supplemented with 0.02% BSA before the assay, and an amount of 5 μg of total protein was dispensed in each 96 well. All experiments were carried out at room temperature.
as §2, §3

[5] = molecular target: T1, human mu receptor (Homo sapiens, UniProt P35372); assay: Calcium mobilization assay, CHO mu cells expressing Gαqi5; assay type: cell-based; settings: for mu α±SEM: intrinsic activity, Emax ratio to standard agonist EM-2
T1 construct: expressed in transfected cells; host or cells: CHO cells stably co-expressing Gαqi5
T1 sequence (P35372 whole entry): as above

[6] = molecular target: T2, delta-opioid receptor (Homo sapiens, UniProt P41143); assay: Radioligand binding, [3H]deltorphin-2 displacement, CHO cell membranes; set-up: purchased; host or cells: CHO cells (membranes)
T2 sequence (P41143 whole entry): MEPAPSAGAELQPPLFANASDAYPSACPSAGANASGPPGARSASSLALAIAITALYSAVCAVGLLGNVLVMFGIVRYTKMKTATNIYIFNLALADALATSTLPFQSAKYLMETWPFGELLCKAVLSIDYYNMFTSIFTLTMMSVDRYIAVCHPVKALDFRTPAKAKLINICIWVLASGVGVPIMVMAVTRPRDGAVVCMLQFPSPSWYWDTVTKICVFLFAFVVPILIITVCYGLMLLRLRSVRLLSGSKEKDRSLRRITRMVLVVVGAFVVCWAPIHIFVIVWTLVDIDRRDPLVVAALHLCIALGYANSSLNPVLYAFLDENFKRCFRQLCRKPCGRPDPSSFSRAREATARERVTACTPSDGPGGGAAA

[7] = Enzymatic degradation in rat brain homogenate; assay type: in vitro ADME; settings: for 100 x k, rate constant of degradation: up to 60 min; for half-life at 0.25 mM: ln2/k, read-out: t1/2, degradation half-life
Protocol: Enzymatic degradation of EM-2 and the analogs was performed measuring their hydrolysis rates in the presence of rat brain homogenate. The homogenate was prepared prior to the experiment. Briefly, rat brains were homogenized in 20 volumes of Tris–HCl (50 mM, pH 7.4) using a Polytron and the obtained aliquots were stored at −80°C. In the experiment, aliquotes of brain homogenate (100 μL, 10 mg protein/mL) were incubated with 100 µL of a peptide (0.5 mM) over 0, 7.5; 15, 22.5; 30, and 60 min at 37°C, in a final volume of 200 µL. After the incubation the degradation reaction was stopped by placing the tube on ice and acidifying the content with 20 µL of HCl (1 M). The aliquots were centrifuged at 20,000 g for 10 min at 4°C. The supernatants were collected and filtered using Millex-GV syringe filters (Millipore). Then the analysis by HPLC on a Vydac C18 column (5 μm, 4.6 × 250 mm), using the solvent system of 0.1% TFA in water (A) and 80% acetonitrile in water containing 0.1% TFA (B) and a linear gradient of 0%–100% B over 25 min, was performed. Three independent experiments for each assay were carried out in duplicate. The rate constants of degradation (k) were obtained by the least square linear regression analysis of logarithmic peak areas [ln (A/AD)], where A—amount of remained peptide, AD—initial amount of peptide versus time. Degradation half-lives (t1/2) were calculated from the rate constants as ln2/k.

[8] = molecular target: T3, human recombinant mu opioid receptor (Homo sapiens, UniProt P35372); assay: Radioligand binding, [3H]DAMGO displacement, CHO cell membranes
T3 construct: purchased; host or cells: CHO cells (membranes)
T3 sequence (P35372 whole entry): as the sequence (P35372 whole entry) above

[9] = molecular target: T2, delta-opioid receptor; assay: Calcium mobilization assay, CHO delta cells expressing GαqG66Di5; assay type: cell-based; set-up: expressed in transfected cells; host or cells: CHO cells co-expressing GαqG66Di5; settings: inactive = inactive up to 10 µM; for Delta pEC50 (CL95%): calcium mobilization; for Delta α± SEM: intrinsic activity, Emax ratio to standard agonist DPDPE
[10] = molecular target: T4, human kappa receptor (Homo sapiens, UniProt P41145); assay: Calcium mobilization assay, CHO kappa cells expressing Gαqi5; assay type: cell-based; settings: inactive = inactive up to 10 µM; for Kappa pEC50 (CL95%): calcium mobilization; for Kappa α± SEM: intrinsic activity, Emax ratio to standard agonist dynorphin A
T4 construct: expressed in transfected cells; host or cells: CHO cells stably co-expressing Gαqi5
T4 sequence (P41145 whole entry): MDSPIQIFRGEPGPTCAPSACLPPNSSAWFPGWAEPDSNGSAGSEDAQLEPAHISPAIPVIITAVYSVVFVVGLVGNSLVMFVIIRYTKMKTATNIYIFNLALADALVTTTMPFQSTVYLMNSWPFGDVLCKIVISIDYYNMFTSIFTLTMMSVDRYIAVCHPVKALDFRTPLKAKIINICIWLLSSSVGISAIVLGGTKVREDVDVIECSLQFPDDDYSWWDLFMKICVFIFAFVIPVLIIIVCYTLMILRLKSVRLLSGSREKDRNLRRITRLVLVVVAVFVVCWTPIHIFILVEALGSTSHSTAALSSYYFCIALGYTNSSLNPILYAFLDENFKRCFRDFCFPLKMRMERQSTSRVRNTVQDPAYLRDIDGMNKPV

[11] = molecular target: T5, human recombinant kappa opioid receptor (Homo sapiens, UniProt P41145); assay: Radioligand binding, [3H]U-69593 displacement, CHO cell membranes
T5 construct: purchased; host or cells: CHO cells (membranes)
T5 sequence (P41145 whole entry): as above

[12] = inactive = inactive up to 10 µM
[13] = rat, pH 7.4, rat brain homogenate, 37°C
[14] = calcium mobilization, inactive = inactive up to 10 µM, read-out: mu pEC50 (CL95%) (converted)
[15] = [3H]deltorphin-2, n ≥ 3, read-out: Ki ± SEM, Delta
[16] = [3H]DAMGO, n ≥ 3, read-out: Ki ± SEM, mu

| Compound | logD [1] | Bias factor (CL95%) [2] | EC50 [3] | EC50 [4] | EC50 [5] | mu α±SEM [5, 12] | Ki [6] | 100 x k, rate constant of degradation ([7]; 37°C) | half-life at 0.25 mM [7, 13] | Ki [8] | Delta pEC50 (CL95%) [9] | Delta α± SEM [9] | Kappa pEC50 (CL95%) [10] | Kappa α± SEM [10] | Ki [11] | other results |
| --- | --- | --- | --- | --- | --- | --- | --- | --- | --- | --- | --- | --- | --- | --- | --- | --- |
| Cc1cc(O)cc(C)c1C[C@H](N)C(=O)N1CCC[C@H]1C(=O)N[C@@H](Cc1ccccc1)C(=O)N[C@@H](Cc1ccccc1)C(N)=O [analog 1, Dmt-Pro-Phe-Phe-NH2] | 2.16 | 0.48 (0.34–0.62) | 11.7 nM | 3.09 nM | 2.51 nM | 0.85 ± 0.02 | 560 ± 41 nM | 3.31 ± 0.12 per min | 0.347 ± 0.02 h | 0.54 ± 0.03 nM | inactive | inactive |  |  |  | fold higher potency than EM-2 ([5]; calcium mobilization, mu): 3 fold |
| NC(=O)[C@H](Cc1ccccc1)NC(=O)[C@H](Cc1ccccc1)NC(=O)[C@@H]1CCCN(C(=O)[C@@H](N)Cc2ccc(O)cc2)C1 [analog 4, Tyr-(R)-Nip-Phe-Phe-NH2] | 1.68 | −0.02 (−0.04-0.00) | 43.7 nM | 11.2 nM |  | 0.99 ± 0.04 |  | 1.05 ± 0.08 per min |  |  | inactive | inactive | inactive | inactive | > 1000 nM | β-Arrestin 2 Emax±sem [3]: 1.30 ± 0.03; EC50 [5, 14]: 2.69 nM; Ki [6, 15]: > 1000 nM; half-life at 0.25 mM ([7]; pH 7.4, 37°C): 1.09 ± 0.04 h; Ki [8, 16]: 0.85 ± 0.17 nM |
| Cc1cc(O)cc(C)c1C[C@H](N)C(=O)N1CCC[C@@H](C(=O)N[C@@H](Cc2ccccc2)C(=O)N[C@@H](Cc2ccccc2)C(N)=O)C1 [analog 5, Dmt-(R)-Nip-Phe-Phe-NH2] | 1.8 | −0.08 (−0.25-0.10) | 3.63 nM | 1.1 nM | 0.316 nM | 1.00 ± 0.02 | 589 ± 28 nM | 0.77 ± 0.06 per min | 1.49 ± 0.05 h | 0.14 ± 0.06 nM | inactive | inactive | inactive | inactive | 567 ± 39 nM |  |
| C[C@H](CNC(=O)[C@@H](N)Cc1ccc(O)cc1)C(=O)N[C@@H](Cc1ccccc1)C(=O)N[C@@H](Cc1ccccc1)C(N)=O [analog 6, Tyr-(R)-β ^ 2 -Ala-Phe-Phe-NH2] | 1.75 | 1.35 (1.15–1.55) | 14100 nM | 417 nM |  | 0.88 ± 0.06 |  | 1.03 ± 0.07 per min |  |  | inactive | inactive | inactive | inactive | > 1000 nM | β-Arrestin 2 Emax±sem [3]: ∼1 ^a; EC50 [5, 14]: 30.2 nM; Ki [6, 15]: > 1000 nM; half-life at 0.25 mM ([7]; pH 7.4, 37°C): 1.11 ± 0.045 h; Ki [8, 16]: 46.8 ± 5.18 nM |
| Cc1cc(O)cc(C)c1C[C@H](N)C(=O)NC[C@@H](C)C(=O)N[C@@H](Cc1ccccc1)C(=O)N[C@@H](Cc1ccccc1)C(N)=O [analog 7, Dmt-(R)-β ^ 2 -Ala-Phe-Phe-NH2] | 2.33 | 0.67 (0.49–0.84) | 19.1 nM | 4.57 nM | 0.692 nM | 0.95 ± 0.03 | 571 ± 55 nM | 0.51 ± 0.03 per min | 2.26 ± 0.0717 h | 0.31 ± 0.09 nM | inactive | inactive | inactive | inactive | 807 ± 46 nM |  |
| C[C@H](CC(=O)N[C@@H](Cc1ccccc1)C(=O)N[C@@H](Cc1ccccc1)C(N)=O)NC(=O)[C@@H](N)Cc1ccc(O)cc1 [analog 8, Tyr-(R)-β ^ 3 -Ala-Phe-Phe-NH2] (H-Y[d(β3hA)]FF-NH2; N-terminus assumed) | 1.71 | 0.76 (0.55–0.98) | 77.6 nM | 7.41 nM | 1 nM | 0.99 ± 0.02 | > 1000 nM | 0.82 ± 0.04 per min | 1.4 ± 0.065 h | 0.44 ± 0.1 nM | inactive | inactive | inactive | inactive | > 1000 nM |  |
| Cc1cc(O)cc(C)c1C[C@H](N)C(=O)N[C@H](C)CC(=O)N[C@@H](Cc1ccccc1)C(=O)N[C@@H](Cc1ccccc1)C(N)=O [analog 9, Dmt-(R)-β ^ 3 -Ala-Phe-Phe-NH2] (H-[Dmt][d(β3hA)]FF-NH2; N-terminus assumed) | 2.09 | 0.27 (0.16–0.38) | 2.14 nM | 0.724 nM | 0.457 nM | 1.00 ± 0.05 | 286 ± 18 nM | 1.90 ± 0.04 per min | 0.605 ± 0.0467 h | 0.14 ± 0.07 nM | inactive | inactive | inactive | inactive | 890 ± 42 nM |  |
| NC(=O)[C@H](Cc1ccccc1)NC(=O)C[C@@H](Cc1cccc2ccccc12)NC(=O)[C@@H]1CCCN1C(=O)[C@@H](N)Cc1ccc(O)cc1 [analog 12, Tyr-Pro-(R)-β ^ 3 -1-Nal-Phe-NH2] | 3.01 | 0.23 (0.06–0.41) | 145 nM | 77.6 nM | 47.9 nM | 0.97 ± 0.02 | > 1000 nM | 1.28 ± 0.05 per min | 0.898 ± 0.0683 h |  | inactive | inactive | inactive | inactive | > 1000 nM |  |
| Cc1cc(O)cc(C)c1C[C@H](N)C(=O)N1CCC[C@H]1C(=O)N[C@@H](CC(=O)N[C@@H](Cc1ccccc1)C(N)=O)Cc1cccc2ccccc12 [analog 13, Dmt-Pro-(R)-β ^ 3 -1-Nal-Phe-NH2] | 3.16 | 0.27 (0.20–0.34) | 4.37 nM | 3.63 nM | 3.8 nM | 0.77 ± 0.02 |  | 1.69 ± 0.07 per min | 0.68 ± 0.0667 h |  | inactive | inactive | inactive | inactive |  |  |
